According to patent US4243812A, “Processes for the preparation of glyoxal-2-oxims” (Taiho Pharmaceutical Company, priority 1978, dated 1981):

Columns and labels:
[1] = Acute toxicity (LD50, oral, mice); conditions: mouse, in vivo, dd-strain male mice 20 to 25 g, fasted overnight, suspended in 0.5% carboxymethyl cellulose, observed seven days
Source text: The compounds to be tested were suspended in 0.5% carboxymethyl cellulose solution, and the suspension was orally administrated in variable amounts in response to the weights of dd-strain male mice having those ranging from 20 to 25 g which were forced to abstain from food overnight.

carrageenin edema = assay: Anti-inflammatory activity (Carrageenin edema method); type: in vivo, rat (Wistar strain; conditions: 100 mg per kg oral, Wistar-strain male rats, 0.1 ml of 1% carrageenin s.c. left hind paw, edema weight after three hours, vs control group
Experimental: (2) Anti-inflammatory activity (Carrageenin edema method)
The compounds to be tested were suspended in 0.5% carboxymethyl cellulose solution, and the suspension was orally administrated in 100 mg per kg of Wistarstrain male rats having their weight range of 130 to 170 g which were forced to abstain from food overnight. These rats were then injected subcutaneously into their left hind paws each with 0.1 ml of a physiological NaCl solution having dissolved therein carrageen in 1% concentration. After three hours from said injection, the rats were killed, both hind legs were cut out and promptly weighed. There is assumed as weight of edema a value obtained by deducting a weight of untreated hind leg from that of the carrageenin injected hind leg of the rat. Inhibition ratio of a sample-administrated group to a control group has been sought. The control group was administrated only with 0.5% […] solution in the same manner.

[2] = tested on: acetic acid stretching symptom; assay: Analgesic activity (Acetic acid stretching method); type: in vivo, mouse (ddy-strain); conditions: 100 mg per kg oral, ddy-strain mice, 0.2 ml of 0.7% acetic acid intraperitoneal
Experimental: (3) Analgesic activity (Acetic acid stretching method)
After the compounds to be tested were orally administrated in 100 mg per kg of ddy-strain mice having their weight range of 20 to 25 g, 0.2 ml of 0.7% acetic acid was intra-peritoneally administrated to each animal to observe stretching symptom thereby having found the inhibition ratio (%).

SMILES | LD50 at 168 h [1] | Anti-inflammatory activity (Carrageenin edema method), inhibition ratio (carrageenin edema) | Analgesic activity (Stretching method), inhibition ratio [2]
Cc1cc(C(=O)C=NO)on1 [(3-Methylisoxazole-5-yl)glyoxal-2-oxim, (3-methylisoxazole-5-yl)glyoxal-2-oxim] | 890 mg/kg | 83% | 50%
O=C(C=NO)c1cc(-c2ccccc2)no1 [(3-Phenylisoxazole-5-yl)glyoxal-2-oxim, (3-phenylisoxazole-5-yl)glyoxal-2-oxim] | 1690 mg/kg | 56% | 75%
